Assay results taken from US8288363B2, “Medicaments for anti-herpes virus treatments” (ASE & BIO, priority 2006, dated 2012).

Tests used:
[1] = test system: HSV-2; assay: Anti-herpes activity, viability of infected vero cells (neutral red); format: cell-based, herpes simplex virus 2; conditions: for EC50: MOI 0.01 ID50/cell
Protocol: (§1) This method is based on the principle that living cells absorb neutral red, which is a vital stain. The optical density of the medium was measured at the maximum absorption wavelength of neutral red, that is to say 540 nm, using a spectrophotometer (SpectraCount™, microplate photometer, Packard). The optical density at 540 nm is proportional to the number of living cells in an infected culture (McLaren et al., Antiviral Research, 1983; 3: 223-234 and Langlois et al., Standardization, 1986, 14: 201-211).
(§2) The effective concentration (EC 50%), that is to say the concentration of the sulphated polysaccharide which enables infection of 50% of the cells of a culture to be inhibited, was measured for each viral strain.
(§3) The determination of the EC50 was carried out in 96-well microtitre plates in accordance with the following protocol. Vero cells are seeded at a cell density of 3.5·10^4 cells/well in 100 μl of MEM medium containing 8% FCS. For each viral suspension defined by its MOI: • the negative control column was filled with 100 μl of MEM medium with 8% FCS, • the virus control column was filled with 50 μl of viral suspension having the required MOI and with 50 μl of MEM medium with 8% FCS, • the PS3 control column was filled with 50 μl of PS3 having the desired concentration range or with 50 μl of acyclovir (Zovirax 0.05-5 μg/ml • finally, all the other columns were filled successively with 50 μl of PS3 having the required concentration range or with 50 μl of acyclovir (Zovirax 0.05-5 μg/ml) and with 50 μl of the viral suspension having the desired MOI.
(§4) The EC50 corresponding to the concentration which enables the cytopathic effect of the virus to be reduced by 50% was calculated in accordance with the following formula: […]
(§5) The anti-herpes activity of PS3 was evaluated and compared on each viral suspension of HSV-1, HSV-1R, HSV-2 and HSV-2R defined by an MOI of 0.01 ID50/cell for a cell concentration of 350,000 cells/ml, after incubation times of 48 and 72 hours.
(§6) This series of experiments was carried out applying the protocol enabling the EC50 to be determined, as described in Example 3.
(§7) The therapeutic indices (TI) of PS3, as well as three other reference products, that is to say acyclovir, dextran sulphate and phycarine, were determined in parallel for each viral strain.
(§8) The therapeutic index (TI) represents the ratio between the maximum non-toxic dose (or a dose inducing a quantified toxicity) and the dose inducing a favourable pharmacological effect.

[2] = test system: acyclovir-resistant strain HSV-2R; assay: as above; format: cell-based, herpes simplex virus 2; conditions: for Anti-herpes activity (conclusion in words) / EC50: HSV-2R; for Anti-herpes activity (conclusion in words): 48 and 72 hours; for EC50: MOI 0.01 ID50/cell
Protocol: as §1, §2, §3, §4, §5, §6, §7, §8

[3] = test system: HSV-1, HSV-1R, HSV-2 and HSV-2R; assay: Action on the viral infection: vero cells pretreated before infection; format: cell-based, herpes simplex virus
Protocol: The abovementioned viral suspensions of HSV-1, HSV-1R, HSV-2 and HSV-2R, defined by an MOI of 0.01 ID50/cell for a cell concentration of 350,000 cells/ml, were tested.
Acyclovir and dextran sulphate used at concentrations comprised between 0.05 and 5 μg/ml were used as reference products in this series of experiments. PS3 concentrations of 0.125 to 1,250 μg/ml were used, and the experiments were carried out in 96-well microtitre plates.
To verify whether PS3 protects a cell culture when it is used before its infection by the abovementioned viral strains, the procedure was as follows.
Vero cells were seeded at a cell density of […] in 100 μl of MEM medium containing 8% FCS.
A solution of 50 μl of PS3 or the comparison product, that is to say acyclovir having a given concentration, was then added to each well filled with 50 μl of MEM medium with 8% FCS.
The microtitre plate containing the cells treated with PS3 or the reference product was than placed in an oven at 37° C. for 6, 12 or 24 hours. The cells were then washed with 100 μl of MEM medium in order to remove the PS3 or the reference product.
A volume of 50 μl of a viral suspension was then added to each well, as well as 50 μl of MEM medium with 8% FCS; and the plates were kept at 4° C. for 1 hour.
The infected cells were then placed in an oven at 37° C. for 48 or 72 hours.

[4] = test system: HSV-1, HSV-1R, HSV-2 and HSV-2R; assay: Action on the viral adsorption, conclusion for the strains together; format: cell-based, herpes simplex virus
Protocol: To determine whether PS3 has an effect on the viral adsorption, the procedure was as follows.
Vero cells were seeded at a cell density of 3.5·10^4 cells/well of a 96-well microtitre plate in 100 μl of MEM medium containing 8% FCS 24 hours before the test. The viral suspensions of HSV-1, HSV-1R, HSV-2 and HSV-2R, defined by an MOI of 0.01 ID50/cell for a cell concentration of 350,000 cells/ml, were tested.
On the day of the test, the cells were subjected to three different treatments designated A, B and C.
According to treatment A, cells treated with 50 μl of PS3 or comparison product (acyclovir) of a given concentration were infected with 50 μl of one of the viral suspensions identified above for one hour at 4° C.
The infected cells were then washed with 100 μl of saline buffer in order to remove the PS3 or the reference product as well as the viral particles which had not been adsorbed by the cells.
After having filled each well with sufficient MEM medium containing 8% FCS to arrive at a volume of 200 μl, the cells were then placed in an oven at 37° C. for 72 hours. […]
For these 3 treatments, the inhibitory effect of PS3 and of the reference product (expressed in EC50) on the adsorption of the four abovementioned viral strains after 72 hours was evaluated by measurement of the EC50 values in accordance with the method described in Example 3.

[5] = non-resistant strains HSV-1 and HSV-2
[6] = strains HSV-1, HSV-2, HSV-1R, HSV-2R, cells pretreated 6, 12 or 24 hours, washed, then infected

Molecule | Therapeutic index HSV-2 ([1]; incubation time 48 hours) | Therapeutic index HSV-2 ([1]; incubation time 72 hours) | Anti-herpes activity (conclusion in words) [2] | Therapeutic index HSV-2R ([2]; incubation time 48 hours) | Therapeutic index HSV-2R ([2]; incubation time 72 hours) | Effect before infection [3, 5] | Effect before infection [3, 6] | Effect on adsorption [4, 5] | Anti-herpes activity (conclusion in words) ([1]; HSV-2, 48 and 72 hours) | EC50 ([1]; HSV-2, after 48 hours of treatment) | EC50 ([1]; HSV-2, after 72 hours of treatment) | EC50 ([2]; after 48 hours of treatment) | EC50 ([2]; after 72 hours of treatment) | Effect on adsorption ([4]; strains HSV-1, HSV-2, HSV-1R, HSV-2R)
Nc1nc2c(ncn2COCCO)c(=O)[nH]1 [Acyclovir, acyclovir, reference compound] | >579 | >613 | not effective | 0 | 0 | no | not protected | no |  |  |  |  |  | 
sulphated laminarin [PS3] | >4,808 | >1,344 | more effective than acyclovir | >3,788 | >1,712 |  | not protected and no |  | more effective than acyclovir | less than 2 μg/ml | less than 5 μg/ml | less than 2 μg/ml | less than 5 μg/ml | inhibitory effect on the 4 viral strains solely during treatment C and yes
